# Measured values as given in patent US20080242661A1, “Novel compounds useful for the treatment of degenerative & inflammatory diseases” (priority 2006, published 2008).
# Key:
# purified PDE1A enzyme [1] = biological target: T1, purified PDE1A enzyme (Homo sapiens, UniProt P54750); assay: In vitro PDE1A primary screening assay (Cisbio cAMP dynamic htrf kit); type: biochemical; settings: 100 nM cAMP; for inhibition at 10 µM: read-out: inhibition of PDE1A (control compounds, primary screening)
# Source text: For the primary screening, an assay using the cAMP dynamic htrf kit from Cisbio (catnr 62AM2PEB) was used. Its principle is based on HTRF® technology (Homogeneous Time-Resolved Fluorescence). The method is a competitive immunoassay between native cAMP and the cAMP labeled with XL665. The tracer binding is visualized by a monoclonal antibody against cAMP, labeled with Cryptate. The specific signal (i.e. energy transfer) is inversely proportional to the concentration of cAMP in the sample (see FIG. 1).
# For the enzymatic reaction a mix of 20 μL is made with purified PDE1A enzyme, 100 nM cAMP and the compound (10 μM in a final concentration of 1% DMSO) in a black 384-plate. The reaction buffer is Tris 20 mM pH 7.4, 4 μg/mL calmodulin, 3 mM MgCl2, 1.5 mM CaCl2, 0.2 mg/mL BSA and 0.001% Brij-35. After an incubation of 30 minutes at room temperature, the reaction is stopped by the addition of 10 μL labelled cAMP-XL665 and 10 μL anti-cAMP-Cryptate. After 1 hour incubation at room temperature, the readout is performed on the Envision (excitation 360 nm; emission donor 615 nm emission acceptor 665 nm).
# PDE1A hydrolyses cAMP into 5′AMP; this low cAMP concentration will result in a high signal. A PDE1A inhibitor will result in a decrease of the signal.
# As a positive control we used 10 μM Vardenafil (100% inhibition), as negative control is used 1% DMSO (0% inhibition), as variable control 10 μM Zaprinast (+/−50% inhibition) is used and as negative control compound 10 μM Ro-20-1724 (0% inhibition). The positive and negative control were used to calculate z′ and PIN values.
# All compounds were screened in single at 10 μM. The hit criterium was set at PIN 50 (50% inhibition).
# purified PDE1A enzyme [2] = biological target: T1, purified PDE1A enzyme; assay: In vitro PDE1A assay, dose response (Biomol Cyclic Nucleotide Phosphodiesterase Assay Kit, colorimetric); type: biochemical; settings: 10 μM; read-out: inhibition of PDE1A (positive control, dose response assay)
# In short: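 Purified PDE1A with 100 μM cAMP and 5′-nucleotidase, incubated 45 min at 37° C in Tris 20 mM pH 7.4 with calmodulin, MgCl2 and CaCl2; released phosphate read by malachite-green absorbance at 615 nm. Duplicate 8-point ⅓ dilutions from 20 μM in 1% DMSO; 10 μM vardenafil defines 100% inhibition.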
Compound,inhibition at 10 µM (purified PDE1A enzyme [1]),"inhibition of PDE1A (control compounds, primary screening) (purified PDE1A enzyme [1]; 10 μM)",inhibition at 10 µM (purified PDE1A enzyme [2])
CCCOc1ccccc1-c1nc2nn[nH]c2c(=O)[nH]1 [Zaprinast],~50%,,
CCCCOc1cc(CC2CNC(=O)N2)ccc1OC (stereo not shown) [Ro-20-1724],,0%,
"CCCc1nc(C)c2c(=O)[nH]c(-c3cc(S(=O)(=O)N4CCN(CC)CC4)ccc3OCC)nn12 [Vardenafil, reference compound]",100%,,100%
